Read-outs that look alike come from different tables or passages of the source.
How the values were obtained:
RVV-V [1] = target: T1, RVV-V (Daboia siamensis, UniProt P18965); conditions: ref [16], [17]; cited from earlier work
From the text: In general, serine proteases are robust and highly sensitive for the cleavage sites; they contain catalytic triad or diad in the active site. […] Both these proteins are active against different molecular substrates. The molecular structure and the catalytic triad arrangement of the RVV-V are analogous with that of the thrombin.

[2] = test system: fibrinogen, prothrombin, factor VIII, and FX; conditions: ref [14], [15]; cited from earlier work
From the text: (§1) Both these proteins are active against different molecular substrates.

[3] = ref [16], [17]; cited from earlier work
From the text: as §1

Factor V = conditions: sites I, II and III of FV; ref [11]; cited from earlier work
From the text: Factor V (FV) is a well-studied large protein, consists of six domains, involved in the blood coagulation cascade. […] Both the proteins cleave the FV at three different sites of FV viz., site I (Arg709–Ser710), site II (Arg1018–Thr1019), and site III (Arg1545–Ser1546). Highly glycosylated B domain of FV is removed by these proteases to achieve an active form of FV.

RVV-V [4] = target: T1, RVV-V; conditions: two-state fit
Procedure: The Russel viper venom was purchased from Irula Snake-Catchers Industrial Cooperative Society (ISCICS), Tamil Nadu, India. The RVV-V was purified as described by Shiffman et al., with some changes. Lyophilized Crude venom (100 mg) was dissolved in 1 ml of 50 mM Sodium Acetate buffer (pH 5.5). The solution was centrifuged at 12,000 rpm for 10 minutes at 4°C and the supernatant was loaded to Sephadex S-100 column (FPLC). Peaks containing the RVV-V were pooled and loaded for CM Sepharose FFCation Exchange (Pharmacia) column (equilibrated with 50 mM sodium acetate buffer pH 5.5). Proteins were eluted with 50mM Na-acetate buffer with gradient 0 to 1 M Sodium Chloride. The fractions of RVV-V were pooled, dialyzed in 50 mM sodium-acetate buffer, and concentrated. Further, the binding kinetics was performed for RVV-V with both the peptides (purchased from Genei™) by SPR method.
The SPR is a well-known primary protein-ligand screening method for the measurement of a real-time, label-free detection of biomolecular interactions like protein-peptide, antibody-antigen, and protein-DNA interactions. A small amount of protein is sufficient and the affinity data are more accurate as the recorded Sensorgram is time-dependent and a continuous flow system. In the experiment the ligand is saturated with an immobilized protein followed by washing, and the association constant (Ka), and the dissociation constant (Kd) are obtained from the binding response data. Biacore T200 optical biosensor was used to get the interaction kinetics of RVV-V with the peptides. The purified RVV-V (concentration of 50 μg/ml in 50 mM sodium acetate buffer, pH 5.5) was immobilized on CM5 chip by amine-coupling method. A constant flow rate of 10μl/min was used to activate the surface of the flow cell for 7 min using a 1:1 mixture of 100 mM N-hydroxysuccinimide (NHS) and 100 mM N-ethyl-N-(dimethylaminopropyl)-carbodiimide (EDC) dissolved in water. The RVV-V was injected for 7 min, and the non-activated carboxy methyl groups on the surface were blocked by 7 min injection of 1 M ethanolamine (pH 8.5) and totally 3000 RU of the RVV-V were immobilized on the chip.
Biacore control software was used for obtaining all data by monitoring the change in the refractive index as a function of time at a flow rate of 30 μl/min. A relative quantity of peptide bound to RVV-V was quantified by calculating the amount of net increase in the refractive index over a period as compared to the initial buffer (PBS) response. The inline subtraction is performed during each run. Before changing each peptide and the peptide-concentration, the surface of the sensor chips was washed by running the buffer (PBS) and the chip was regenerated by injecting 10 mM glycine pH 2.5 for 30 sec. The association and the dissociation times are 120 and 300 sec respectively. For both the peptides, the experiment was performed by changing the concentration of the peptides ranging from 62.5 uM to 1 mM.

T1 sequence (P18965 25-260): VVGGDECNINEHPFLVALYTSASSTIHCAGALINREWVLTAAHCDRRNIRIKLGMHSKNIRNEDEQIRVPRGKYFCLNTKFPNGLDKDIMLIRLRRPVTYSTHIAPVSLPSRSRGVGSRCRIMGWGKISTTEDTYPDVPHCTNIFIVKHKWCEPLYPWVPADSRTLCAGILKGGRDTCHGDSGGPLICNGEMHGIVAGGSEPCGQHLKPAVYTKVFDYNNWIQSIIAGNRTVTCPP

O=C(O)CN(CCN(CC(=O)O)CC(=O)O)CC(=O)O [EDTA]
response of RVV-V to serine protease inhibitor (RVV-V [1]): no response

Russell’s viper venom factor V activator [RVV-V]
effect on structure or activity after prolonged incubation [2]: no effect
amidase activity [3]: weak amidase activity
cleavage of FV sites (Factor V): cleaving the site III and does not cleave the other two thrombin-susceptible sites

1008KHTHHAPLSPRTFHP1022 [Peptide II]
ka1 (RVV-V [4]; Biacore T200, RVV-V immobilized on CM5 chip (amine coupling, 3000 RU), PBS, 30 μl/min, peptide 62.5 uM to 1 mM, association 120 s, dissociation 300 s): 760.4 M⁻¹ s⁻¹
Kd1 (RVV-V [4]; Biacore T200, RVV-V on CM5 chip, PBS, peptide 62.5 uM to 1 mM, dissociation rate constant of first step): 2.414 s⁻¹
kd2 (RVV-V [4]; Biacore T200, RVV-V on CM5 chip, PBS, peptide 62.5 uM to 1 mM, second step): 0.001942 s⁻¹
ka2 (RVV-V [4]; Biacore T200, RVV-V on CM5 chip, PBS, peptide 62.5 uM to 1 mM, second step (conformational change)): 0.0002809 s⁻¹
kd1 (RVV-V [4]; first (unstable) complex): 2.414 s⁻¹
ka1 (RVV-V [4]; first reaction): 760.4 M⁻¹ s⁻¹
kd2 (RVV-V [4]; second (more stable) complex): 0.001942 s⁻¹
ka2 (RVV-V [4]; second reaction): 0.0002809 s⁻¹
